Test results from a melting point compilation (Tetko et al.; mined from patent text by program, amines drawn as free bases though some values may be those of a salt).

| melting point [°C] | SMILES |
| --- | --- |
| 253 | CCN(CC)c1ccc(-c2cc(-c3ccc(C(=O)O)cc3)ccc2CCCNC2CCCCC2)cc1C(C)(C)C |
| 197 | NC(=O)c1c(Br)cc(Br)c(CCC(=O)O)c1Br |
| 174 to 176 | O=C(O)CC1(c2ccc(F)cc2)CNC(=O)C1 (centres undefined) |
| 117 to 120 | N#CC1OC(=O)c2c(F)cccc21 (centres undefined) |
| > 280 | CC1COc2c(F)c(F)c(N)c3c(=O)[nH]c(=O)n1c23 (centres undefined) |
| 230 to 232 | Cc1cccc(-n2c(-c3cc(-c4ccncc4)c(N4CCOCC4)s3)nc3ccccc3c2=O)c1 |
| 85 to 90 | Cc1ccc(S(=O)(=O)NC(=O)OCCc2ccc(-n3c(CCCN4CCCC4=O)nc4cc(C(F)(F)F)c(Cl)cc43)cc2)cc1 |
| 158 to 159 | C#CCOc1cc(C(=O)O)cc(Cl)c1OCC#C |
| 130 to 132 | CNC(=O)[C@H](C)C[C@H](O)[C@H](CC1CCCCC1)NC(=O)[C@H](Cc1cscn1)NC(=O)[C@@H](CC(=O)N1CCOCC1)Cc1ccccc1 |
| 151 to 153 | C=CCC1(CC=C)c2cccc(Cl)c2C(=O)c2c(OC)cccc21 |
| 106 to 108 | CCN(CC)Cc1ccc2[nH]c(C)c(C(=O)OCc3ccccc3)c2c1 |
| 153 to 156 | CC(C)(C)C(=O)OCC1OC(OC(=O)C(C)(C)C)C(OC(=O)C(C)(C)C)C(OC(=O)C(C)(C)C)C1OC(=O)C(C)(C)C (centres undefined) |
| 260 | CC(=O)Nc1nc2c(Oc3cc(-c4ccc(C(F)(F)F)cc4Br)ncn3)cccc2s1 |
| 74 to 76 | CC(C)(C)OC(=O)N[C@@H](CO)C(=O)NCCO |
| 97 to 99 | CCOC(=O)C(=[N+]=[N-])C(=O)c1cc(OC)ccc1C1CCc2cc(OC)ccc21 (centres undefined) |
| 98 to 99 | Nc1ccc2oc3c(c2c1)CCCCC3 |
| 94 | CCCN(CCC)C(=O)n1cnc(S(C)(=O)=O)n1 |
| 148 to 150 | CSc1cc(Cl)cc(C(=O)O)c1 |
| 124 to 126 | O=C(N[C@@H](CO)c1nc2cc(Br)ccc2[nH]1)c1ccc(C(=O)N2CC=CC2)c(Cl)c1 |

| melting point [°C] | SMILES |
| --- | --- |
| 105 to 108 | O=C1C(=O)N(c2cccc3ccccc23)C(=O)N1c1ccccc1 |
| 214 to 216 | Cn1ncc(C(=O)Nc2ccc(-n3nc(C(F)(F)F)cc3C(F)(F)F)cc2)c1[N+](=O)[O-] |
| 152 to 153 | CC(=O)NC12CC3(C)CC(C)(CC(CO)(C3)C1)C2 |
| 161 to 162 | O=C(O)Cc1ccc2nc(-c3ccccc3)ccc2c1 |
| 117 to 119 | COc1ccc(SCc2ccc(-c3csnn3)cc2)cc1 |
| 95 to 100 | O=c1[nH]ncc2[nH]c(-c3ccc(OC(F)F)c(OC4CC4)c3)c(COC3CCC3)c12 |
| 156 to 161 | COc1ccc(C2(c3ccc(N(C)C)cc3)OC(=O)c3cc(N(C)C)ccc32)cc1 (centres undefined) |
| 96 to 98 | Nc1ccc(C2CCSCC2)c(F)c1 |
| 166 to 167 | COc1ccc(C(=O)N2CC[C@H](O)C2=O)cc1OCc1ccccc1 |
| 140 | C#CCOc1ccc2ccc(NC(=O)c3ccc(OC)cc3)nc2n1 |
| 122 to 125 | CCCCCCCCCCCCNC(=O)COc1ccc(O)cc1NCC(=O)O |
| 116 to 140 | CCCCCCCCCCCCCCCCCCNC(=O)NCCCN |
| 204 to 207 | O=C1OC(=O)c2c(Cl)c(Sc3ccccc3)c(Sc3ccccc3)c(Cl)c21 |
| 70 to 71 | O=C1c2ccccc2CN1CCCOc1ccncc1 |
| 256 to 257 | CNC(=O)NS(=O)(=O)c1cc2c(cc1OC)OCC(NC(=O)c1cc(Cl)ccc1OC)C2 (centres undefined) |
| 89 to 90 | COC(=O)COc1ccc(C(=O)CCCl)cc1 |
| 125 to 127 | O=C(CN1CCOCC1)Nc1ccn(-c2ccc(Cl)c(Cl)c2)n1 |
| 92 | Cc1coc2cc(O)ccc12 |

| SMILES | melting point [°C] |
| --- | --- |
| COc1cc2c(cc1OC)C1(C3OCCO3)CNCC2O1 (centres undefined) | 107 to 109 |
| Cc1nnc2n1-c1ccc([N+](=O)[O-])cc1C(c1ccccc1)=NC2 | 233 to 234 |
